Paper PMC4976923, “Potent Allosteric Dengue Virus NS5 Polymerase Inhibitors: Mechanism of Action and Resistance Profiling” (PLoS Pathogens, 2016)
Where two headings read alike, the source gives them in different places.

How the values were obtained:
[1] = target: T1, DENV1 FL NS5 (Dengue virus type 1, UniProt P17763); experiment: DENV1 FL NS5 de novo initiation FAPA assay; assay type: biochemical; settings: one experiment; read-out: DENV FL NS5 de novo initiation FAPA, IC50, DENV1
T1 construct: 100 nM DENV FL NS5 protein was added; made in house
Description: (§1) DENV1-4 FL NS5 dnI assays were performed as described previously. Briefly, compounds from 0–20 or -100 μM concentrations are two-fold serially diluted into 384-well black opaque plates (Corning Costar), after which 100 nM DENV FL NS5 protein was added and the plates incubated at RT for 20 min. RNA and ATTO-CTP, ATP, GTP and UTP were then added and the plates incubated for another 120 min. Reactions were stopped with buffer containing 25 nM CIP, re- incubated at RT for 60 min and read on a Tecan Safire II microplate reader. For order-of-addition experiments, DENV4 FL NS5 was incubated for one hour at RT with RNA, ATP, and GTP or RNA, ATP, GTP and ATTO-CTP, followed by exposure to serially diluted compounds for 20 min at RT. The missing components (ATTO-CTP and UTP or UTP alone) were added and the reactions continued for 120 min after which STOP buffer was added as before. All datapoints were performed in duplicate wells. Each compound was tested at least twice.
(§2) 2 Co mpound testing with DENV dn I FAPA assays. Final dn I assa y reaction mixtures
(§3) 3 contained 100 nM DENV 5 ´UTR-L-3´UTR IVT RNA, 20 µ M ATP, 20 µM GTP, 20 µM
(§4) 4 UTP, 5 µM ATTO -CTP, and 100 nM of DENV FL NS5 protein in 15 µl in assa y buffer
(§5) 5 comprising 50 mM Tris/ HCl, pH 7.5, 10 mM KCl, 1 mM MgCl2, 0.3 mM MnCl2 (DENV2
(§6) 6 and 4) or 1 mM MnCl 2 (DENV1 and 3), 0.001% Triton- X-100 and 10 µ M cystein e [ 1] . To
(§7) 7 perform dose-respons e inhibition measurements, compounds from 0- 20 or - 100 µM
(§8) 8 concentr ations are two -fold seriall y diluted into 384-well black opaqu e plat es (Corning
(§9) 9 Costar), after which 100 nM DENV FL NS5 protein was added into resp ect ive wells. The
(§10) 10 plates wer e sealed, b riefl y shak en and centrif uged at 1500 rpm for 30 sec and incubated at RT
(§11) 11 for 15 min. Thereafter,RNA and ATTO -CTP, ATP, GTP and UTP were added to the wells to
(§12) 12 start the reactions. The pl ates wer e re-seal ed, shaken and centrifuged as before, followed b y
(§13) 13 incubation RT for 120 min. Reactions were stopped by addition of 10 µl of 2.5X STOP
(§14) 14 buffer (200 mM NaCl, 25 mM MgCl2, 1.5M DEA, pH 10; Promega) with 25 nM calf
(§15) 15 intestinal phosphatase (CIP), re- incubation at RT for 60 min and read on a Tecan Safire II
(§16) 16 microplate reader. For o r der-of-addition experiments, DENV4 FL NS5 was incubated for one
(§17) 17 hour at RT with RNA, ATP, and GTP or RNA, ATP, GTP and ATTO-CTP, followed by
(§18) 18 exposure to seriall y dilut ed compounds for 20 mi n at RT. The missing components (ATTO-
(§19) 19 CTP and UTP or UTP alone) were added and the reactions continued for 120 min after which
(§20) 20 STOP buffer was added as before. All datapoints were performed in duplicate wells. Each
(§21) 21 compound was tested at l east twice.
(§22) 23 Compound testing in DENV1-4 infected cells by high content imaging. Approximatel y 7
(§23) 24 × 10^3 A549 cells per well were s eeded into 384-well plates in Ham’s F-12K medium

[2] = in vitro; assay type: cell-based; settings: human, HuH-7 (DENV2 replicon cells); 48 hr; ATP levels
Description: A549, BHK-21 and Huh7 cells bearing stable DENV2 sub-genomic replicon or transiently electroporated DENV2-NGC replicon or infectious virus cDNAs were seeded into 384-well microplate (3,000 cells per well). After over-night incubation at 37°C with 5% CO2, the cells were treated with 2-fold serially diluted compounds, starting from 20 or 50 μM. At 48 hr of post-incubation, renilla luciferase activities were measured with the ViviRen live-cell substrate (Promega, USA) according to the manufacturer’s protocol. CellTiter-Glo reagent (Promega, USA) was then added to determine cytotoxic effects of compounds. For the HCV replicon assay, Huh-7.5 cells harboring the HCV replicon were seeded into a 96-well microplate (20,000 cells per well). At 48 hr after compound treatment, cells were assayed for firefly luciferase activity by using a Bright-Glo luciferase assay (Promega, USA). NITD-008, a nucleoside inhibitor of DENV and HCV was added as a control.

[3] = target: T2, DENV4 FL NS5 (Dengue virus type 4, UniProt P09866); experiment: biochemical
T2 construct: 100 nM DENV FL NS5 protein was added; made in house
Description: as §1, with “Reactions were stopped with buffer containing 25 nM CIP, re- incubated at RT for 60 min and read on a Tecan Safire II microplate reader.” left out
as §2, §3, §4, §5, §6, §7, §8, §9, §10, §11, §12
(§24) 13 incubation RT for 120 min.
as §15, §16, §17, §18, §19, §20
21 compound was tested at l east twice. […]

[4] = target: T3, DENV3 FL NS5 (Dengue virus type 3, UniProt Q6YMS4); experiment: DENV3 FL NS5 de novo initiation FAPA assay; assay type: biochemical; settings: one experiment; read-out: DENV FL NS5 de novo initiation FAPA, IC50, DENV3
T3 construct: 100 nM DENV FL NS5 protein was added; made in house
Description: as §1, §2, §3, §4, §5, §6, §7, §8, §9, §10, §11, §12, §13, §14, §15, §16, §17, §18, §19, §20, §21, §22, §23

[5] = target: T2, DENV4 FL NS5; experiment: biochemical; settings: Enzyme + compound; averaged from >3 experiments; read-out: Elongation IC50
[6] = target: T4, DENV4 FL NS5 S797A (Dengue virus type 4, UniProt P09866, S3284A); assay type: biochemical; settings: dnI FAPA; one experiment
T4 construct: Site-directed alanine mutations of DENV4 FL NS5 cDNA; made in house

[7] = system: DENV2-NGC Ren-LUC Replicon in HuH-7; experiment: Stable HuH-7 DENV2-NGC renilla luciferase replicon assay; assay type: cell-based; settings: Dengue virus, DENV2, Huh-7, 48 h, read-out: HuH-7 DENV Replicon, DENV2, EC50
[8] = target: T2, DENV4 FL NS5; assay type: biochemical; settings: for mode of inhibition with respect to viral RNA substrate / mode of inhibition with respect to GTP: Lineweaver-Burk plots; for mode of inhibition with respect to viral RNA substrate: 0–500 nM RNA; for mode of inhibition with respect to GTP: 0–50 μM GTP
[9] = target: T5, DENV4 FL NS5 W803A (Dengue virus type 4, UniProt P09866, W3291A); assay type: biochemical; settings: dnI FAPA; one experiment
T5 construct: Site-directed alanine mutations of DENV4 FL NS5 cDNA; made in house

[10] = target: T6, DENV2 FL NS5 (Dengue virus type 2, UniProt P14340); experiment: DENV2 FL NS5 de novo initiation FAPA assay; assay type: biochemical; settings: one experiment; read-out: DENV FL NS5 de novo initiation FAPA, IC50, DENV2
T6 construct: made in house
Description: as §1, with “Reactions were stopped with buffer containing 25 nM CIP, re- incubated at RT for 60 min and read on a Tecan Safire II microplate reader.” left out
as §2, §3, §4, §5, §6, §7, §8, §9, §10, §11, §12, §24, §15, §16, §17, §18, §19, §20, §21, §22, §23

[11] = target: T2, DENV4 FL NS5; settings: Enzyme + compound 20 min, then ssRNA and nucleotides, 2 hr; read-out: DENV FL NS5 de novo initiation FAPA, IC50, DENV4; cited from earlier work
[12] = system: DENV4 FL NS5; experiment: Thermo-denaturation assay, recombinant FL NS5; assay type: binding; settings: +50 μM compound; DMSO control 42.5
Description: (§25) Site-directed alanine mutations of DENV4 FL NS5 cDNA were performed using pET28-D4-MY01-22713 NS5FL [23] as a template, according to the manufacturer’s protocol (Stratagene, USA). Protein expressions of DENV1-4 FL NS5 and their stability analyses by thermo-fluorescence were performed as described previously. DENV de novo initiation and elongation FAPA assays were earlier described. […]
(§26) 6 Fi g .5. Ef fects of N -pocket compounds on DENV pol ymerase thermo-stability. Melting
(§27) 7 temperatur e (Tm) w as ass essed b y thermo-d enatur ation in presence of the S YPRO Oran ge
(§28) 8 dye as described in Materials and Methods. (A-F) Representative meltin g curves of DEN V4
(§29) 10 inhibitors or 5 % DMSO control. […]
(§30) 16 controls treated with DMSO.

[13] = target: DENV4 RdRp domain (aa 268–900) (Dengue virus type 4, UniProt P09866); experiment: Thermo-denaturation assay, recombinant RdRp domain; assay type: binding; settings: +50 μM compound; DMSO control 50
Description: as §25, §26, §27, §28, §29, §30

[14] = Enzyme + compound 20 min, then ssRNA and nucleotides, 2 hr, averaged from ≥3 experiments, read-out: DENV FL NS5 de novo initiation FAPA, IC50, DENV4
[15] = representative dose-response curve, read-out: IC50, best-fit value of representative curve (Fig 1A in S1 Text)

Structure (SMILES)	IC50 [1]	CC50 [2]	IC50 [3, 14]	IC50 ([3]; compound added to enzyme-dsRNA complex, read-out: de novo IC50, order of addition: [Enzyme + RNA+ ATP+GTP+ATTO-CTP] + compound)	IC50 ([3]; compound added to enzyme-dsRNA complex, read-out: de novo IC50, order of addition: [Enzyme + RNA+ATP+GTP] + compound)	IC50 ([3]; compound added to pre-formed enzyme-ssRNA complex, read-out: de novo IC50, order of addition: [Enzyme + RNA] + compound)	IC50 [3, 15]	IC50 [4]	IC50 [5]	S797A IC50 [6]	EC50 [7]	mode of inhibition with respect to viral RNA substrate [8]	mode of inhibition with respect to GTP [8]	W803A IC50 [9]	IC50 [10]	IC50 [11]	Protein melting temperature Tm with compound, FL NS5 [12]	Protein melting temperature Tm with compound, RdRp domain [13]	mode of inhibition at high GTP concentrations ([8]; high GTP concentrations)
Nc1nc2c(ncn2[C@@H]2O[C@H](COP(=O)(O)OP(=O)(O)OP(=O)(O)O)C[C@H]2O)c(=O)[nH]1 [3'dGTP, reference compound]	0.52 µM	> 100 µM	0.79 ± 0.2 µM	0.71 ± 0.2 µM	0.74 ± 0.26 µM	0.44 ± 0.02 µM	0.513 µM	0.27 µM	0.43 ± 0.29 µM	retained the same IC50	> 100 µM	non-competitive	competitive	retained the same IC50	0.62 µM				
COc1ccc(CC(=O)O)cc1-c1ccccc1 [Compound 3]	769 µM	> 100 µM					788 µM	796 µM			> 100 µM				769 µM	733 ± 10.6 µM			
COc1ccc(CC(=O)O)cc1-c1ccc(Cl)s1 [Compound 3i]	46.6 µM	> 100 µM	30.7 ± 9.4 µM				30.9 µM	66.8 µM			> 100 µM				37.2 µM				
O=C(O)Cc1cc(CC(=O)O)cc(-c2ccc(Cl)s2)c1 [Compound 11]	7.1 µM	> 100 µM						10.7 µM			> 100 µM				39.7 µM				
O=C(O)Cc1cc(CC(=O)O)cc(-c2ccc(C#CCO)s2)c1 [Compound 15]	0.3 µM	> 100 µM						0.46 µM			> 100 µM	uncompetitive	uncompetitive inhibition		2.2 µM		52 °C	65 °C	non-competitive mode of inhibition
COc1cc(C)c(C(=O)NS(=O)(=O)c2ccccc2)cc1-c1ccc(C#CCO)s1 [Compound 25]	0.033 µM	> 100 µM					0.281 µM	0.04 µM			11.4 µM				0.106 µM	0.165 ± 0.108 µM			
COc1cc(OC)c(-c2ccc(C#CCO)s2)cc1C(=O)NS(=O)(=O)c1ccccc1 [Compound 26]	0.075 µM	> 100 µM					0.115 µM	0.057 µM			21 µM				0.145 µM	0.251 ± 0.129 µM			
